Reference: patent US8568805B2, “Cognitive function” (Mars, Inc., priority 2002, dated 2013)

What was measured:
connexin43 = experiment: Immunofluorescence analysis of the subcellular distribution of connexin43; assay type: cell-based, rat; details: 90 min
Experimental: For immunohistochemistry, WB-F344 cells were grown in complete medium with FCS on coverslips in 35 mm plastic dishes until they reached 90% confluence. The cells were incubated for 90 min with 1, 5, or 10 nM TPA, 40 μM (−)-epicatechin or 40 μM genistein or a combination of 40 μM (−)-epicatechin and (1, 5, 10 nM) TPA or 40 μM genistein and (1, 5, 10 nM) TPA; DMSO (0.2%) was used as a control. After treatment, cells were washed with PBS and fixed with methanol for 10 min at −20° C. After further washing with PBS, non-specific binding sites were blocked with 3% normal goat serum (NGS) in PBS containing 0.3% (v/v) Triton-X-100 for 45 min at room temperature. Cells were incubated with a polyclonal anti-Cx 43 antibody (Zymed); diluted 1:1500 in PBS with 1% (v/v) NGS overnight at 4° C. Cells were washed with PBS, and incubated with an Alexa 546-coupled goat anti-rabbit Ig G (H+L) secondary antibody (Molecular Probes; diluted to 1:800 in PBS) for 45 min at 37° C. After washing and embedding, images were taken with a Zeiss axiovert fluorescent microscope coupled to a CCD camera (ORCA II, Hamamatsu).

[1] = tested on: WB-F344 rat liver epithelial cells; experiment: Gap junctional communication assay (Lucifer Yellow dye transfer); assay type: cell-based; details: for stimulation of GJIC, fold of control: 24 h of exposure
Experimental: WB-F344 rat liver epithelial cells (kindly provided by Dr. Trosko, East Lansing, Mich.) were grown in Dulbecco's modification of Eagle's Medium (DMEM) supplemented with 10% fetal calf serum (FCS), 2 mM L-glutamine and penicillin/streptomycin in 35 mm plastic dishes. Cells were incubated at 37° C. in a humidified atmosphere containing 5% CO2. The confluent cells were incubated with DMEM (without FCS) for 24 h to decrease the basal level of cell-cell communication. (−)-Epicatechin, genistein (Sigma) or TPA were dissolved in DMSO and added to the medium; controls received DMSO only. The final concentration of DMSO in the medium was 0.2%. The epicatechin dimer was prepared as described in Adamson et al. (“HPLC Method for the Quantification of Procyanidins in Cocoa and Chocolate Samples and Correlation to Total Antioxidant Capacity” J. Ag. Food Chem., Vol. 7:10, 4184-4188), the relevant portion of which is hereby incorporated herein by reference.
Cells were treated with (−)-epicatechin (4 to 40 μM) and genistein (40 μM) for 24 and 72 h and GJIC was determined. […] GJIC was measured by microinjection of the fluorescent dye Lucifer Yellow CH (10% in 0.33 M LiCl) into selected cells by means of a micromanipulator and a microinjector system (Eppendorf). One min after injection, the number of fluorescent cells around a single cell which was loaded with the dye were counted. Ten individual cells were injected per dish and means of the number of fluorescent neighboring cells were calculated. Images were taken with a Zeiss axiovert fluorescent microscope coupled to a CCD camera (ORCA II, Hamamatsu).

[2] = tested on: cultured human umbilical vein endothelial cells; details: cited from earlier work
[3] = Rattus norvegicus, WB-F344, 40 μM, 72 h, read-out: GJIC % of Control

## CCCCCCCCCCCCCC(=O)O[C@@H]1[C@@H](C)[C@@]2(O)[C@@H](C=C(CO)C[C@]3(O)C(=O)C(C)=C[C@@H]23)[C@H]2C(C)(C)[C@]12OC(C)=O [TPA]
connexin43; TPA 10 nM
  signal of membrane-associated Cx43: decreased dramatically
[1]; 0.1 nM TPA, 90 min
  effect on GJIC: No effect
[1]; 1 nM TPA, 90 min
  GJIC diminished by: about 40%
[1]; TPA 0.1 nM alone, 90 min
  GJIC (% control): 94 ± 14 % control
[1]; TPA 1 nM alone, 90 min
  GJIC (% control): 55 ± 19 % control
[1]; TPA 5 nM alone, 90 min
  GJIC (% control): 0 % control
[1]; TPA 10 nM alone, 90 min
  GJIC (% control): 0 % control
[1]; TPA alone 5 and 10 nM, 90 min
  intercellular communication: completely disrupted
[1]; TPA, 72 h incubation
  effect on GJIC: no effect

## O=c1c(-c2ccc(O)cc2)coc2cc(O)cc(O)c12 [Genistein, genistein]
[2]
  levels that affect GJIC in cell culture: above 10 μM
connexin43; 40 μM plus TPA 10 nM
  TPA effect on Cx43 distribution: attenuated
[1]; 40 μM coincubated with TPA 5 and 10 nM, 90 min
  counteraction of complete loss of GJIC by TPA: partially counteracted
[1]; 40 μM plus TPA 1 nM, 90 min
  GJIC (% control): 90 ± 23 % control
[1]; 40 μM plus TPA 5 nM, 90 min
  GJIC (% control): 83 ± 18 % control
[1]; 40 μM plus TPA 10 nM, 90 min
  GJIC (% control): 72 ± 17 % control
[1]; 40 μM with 1 nM TPA, 90 min
  GJIC when applied together with TPA: restored GJIC to basal levels
[1]; 40 μM
  stimulation of GJIC, fold of control: 2.1 fold
[1]; 40 μM, 72 h
  Number of communicating cells: 35.4 ± 2.4 cells
[1]; 40 μM, 72 h incubation
  increase of GJIC, fold above controls: 2.9 fold
[1]; [3]
  activity at 40 µM: 293 ± 20%

## Oc1cc(O)c2c(c1)O[C@H](c1ccc(O)c(O)c1)[C@H](O)C2 [(−)-Epicatechin]
[1]; 4 μM (lowest concentration)
  communication, fold above solvent control: 1.6 fold
[1]; 4 μM, 72 h
  Number of communicating cells: 18.1 ± 2.2 cells
[1]; 10 μM, 72 h
  Number of communicating cells: 20.1 ± 6.8 cells
[1]; 40 μM plus TPA 0.1 nM, 90 min
  GJIC (% control): 95 ± 14 % control
[1]; 40 μM plus TPA 1 nM, 90 min
  GJIC (% control): 95 ± 19 % control
[1]; 40 μM plus TPA 5 nM, 90 min
  GJIC (% control): 61 ± 15 % control
[1]; 40 μM plus TPA 10 nM, 90 min
  GJIC (% control): 50 ± 16 % control
[1]; 40 μM
  stimulation of GJIC, fold of control: 1.5 fold
[1]; 40 μM, 72 h
  Number of communicating cells: 24.2 ± 3.1 cells
[1]; 40 μM, 72 h incubation
  increase of GJIC, fold above controls: 2.1 fold
[1]; Rattus norvegicus, WB-F344, 4 μM, 72 h, read-out: GJIC % of Control
  activity at 4 µM: 156 ± 18%
[1]; Rattus norvegicus, WB-F344, 10 μM, 72 h, read-out: GJIC % of Control
  activity at 10 µM: 173 ± 56%
[1]; [3]
  activity at 40 µM: 209 ± 26%
